In patent publication US11779602B2, “Methods of use for CAR T cells” (ENDOCYTE, INC., priority 2018, dated 2023):

How the values were obtained:
FR-negative HOS-143b = assay: Co-culture at 10 nM EC17, varying E/T ratios: specific lysis; assay type: cell-based, human; settings: 10 nM EC17, 48 hours
Protocol: (§1) After 24 hours of co-culture, supernatants were harvested to determine tumor cell killing. To study the kinetics of T cell activation and FR correlation in vitro (FIGS. 60A-L), co-cultures were carried out in FR+/− cell lines at varying E/T ratios (1:27, 1:9, 1:3, 1:1, 3:1) in the continuous presence of 10 nM EC17. The kinetics of tumor cell killing were quantified after 16 and 48 hours of co-culture. Meanwhile, a portion of the supernatants was taken after 44 hours of co-culture for measurement of IFNγ, IL-2 and TNFα. Using Promega's CytoTox 96® LDH assay kit, target cell killing was quantified and expressed as specific lysis (%) which was normalized to basal levels in the absence of EC17 at defined E/T ratios. The LEGENDplex™ human Th1 cytokine panel (BioLegend, San Diego, Calif.) was used to determine CAR-T cell derived cytokines.
(§2) Specific lysis (%) was quantified after 16 and 48 hours of co-culture, and Th1 cytokines (IFNγ, IL-2, TNFα) in culture media were measured after 44 hours of co-culture. […] It generally took a longer time (48 hours) and a higher E/T ratio (≥1:1) to see significant activity in the lowest FR-expressing OV90 cells (FIGS. 60A-G). The high FR-expressing KB cells responded […] to cause significant cell death (FIG. 60F).

[1] = system: FR+ cell lines (MDA-MB-231, KB, HOS-FRα, THP1-FRβ, OV90); assay: Co-culture at 10 nM EC17, varying E/T ratios: specific lysis and Th1 cytokines; assay type: cell-based, human; settings: 10 nM EC17, ≥1:1 E/T ratios, 48 hours
Protocol: as §1
as §2, with “60F). […]” for “60F).”

Question: Which results are given for `NC1=NC2N=CC(CNc3ccc(C(=O)N[C@@H](CCC(=O)NCCNC(=S)Nc4ccc(-c5c6ccc(=O)cc-6oc6cc(O)ccc56)c(C(=O)O)c4)C(=O)O)cc3)=NC2C(=O)N1` (some centres unmarked) [EC17, FA-(γ)-ethylenediamine-FITC]?
Answer: specific lysis response (FR-negative HOS-143b): essentially unharmed; specific lysis response [1]: all FR+ cancer cells responded after 48 hours of co-culture
